Values quoted from earlier work as cited in US20020054922A1, “Cosmetic composition and method” (priority 2000, published 2002).

System: skin punch biopsy wound
Settings: 25 micrograms estradiol per 24 hours by skin patch

## C[C@]12CC[C@@H]3c4ccc(O)cc4CC[C@H]3[C@@H]1CC[C@@H]2O [estrogen, estradiol]
Day 7
  fibronectin levels compared to placebo: increased fibronectin levels
Day 7, aged men and women
  wound size compared to placebo: decrease in wound size
Days 7 and 80
  collagen levels compared to placebo: increased collagen levels
